# Data from US20210253520A1, “POLYMYXIN-BASED COMPOUNDS USEFUL AS ANTIBACTERIAL AGENTS” (UNIVERSITAT DE BARCELONA, priority 2018, published 2021).
# Where two headings read alike, the source gives them in different places. Numbered stars: 1 amine (or outer) side, 2 acyl side, 3 side chain; on linkers, the order of the positions; unused ones are H or OH. Bridge positions count the residues as written; N and C are the ends. Square brackets hold non-standard residues; d marks the D form. Peptide text beside a SMILES is read from it. * marks the point of attachment. X1 = C[C@@H](O)[C@@H](CS[*:1])N[*:2]; dGly(nOct) = CCCCCCCC[C@@H](N)C(=O)O; Hica(2S) = CC(C)C[C@H](O)C(=O)O; Octanoyl = CCCCCCCC(=O)*; Dab = NCC[C@H](N)C(=O)O
# Legend:
# E. coli ATCC 25922 = test: microbe, parasite or virus in culture; format: cell-based; conditions: for antibacterial activity (MIC): ATCC 25922
# Description: (§1) The antibacterial activity of the polymyxin lipopeptides was measured at ISGlobal following the microdilution test to determine the Minimal Inhibitory Concentrations (MIC) in sterile 96-well polypropilene plates. The concentration range was 32 a […] in Iso-Sensitest broth (Oxoid, ThermoFisher). The results were carried out in triplicate and the highest MIC is the one shown. Bacterial strains were grown in blood agar plates at 37° C. for 17 h. Fresh colonies were used to prepare a McFarland 0.5 solution that was finally added to the plates at 1 to 100 dilution
# (§2) Samples of sensitive and multi-drug resistant bacteria were: E. coli ATCC 25922 E. coli MB1410; K. pneumoniae MB674; P. aeruginosa ATCC 27853; P. aeruginosa 36A.
# P. aeruginosa 36A = test: microbe, parasite or virus in culture; format: cell-based; conditions: for MIC: resistance profile of strain P. aeruginosa 36A, Table 3; for antibacterial activity (MIC): 36A
# Description: as §1, §2
# P. aeruginosa ATCC 27853 = test: microbe, parasite or virus in culture; format: cell-based; conditions: for MIC: resistance profile of strain P. aeruginosa ATCC 27853, Table 3; for antibacterial activity (MIC): ATCC 27853
# Description: as §1, §2
# E. coli MB1410 = test: microbe, parasite or virus in culture; format: cell-based; conditions: for MIC: Escherichia coli
# Description: as §1, §2
# Swiss CD-1 female mice = test: Nephrotoxicity study, histopathological scoring of kidney lesions; format: in vivo; design: key to Group Score (GS): mean of per-animal summed 0-4 lesion scores; higher = more nephrotoxic; key to Animal Score (AS), Partial AS: sum of 0-4 lesion parameter scores; higher = more nephrotoxic; conditions: for Animal Score (AS), Partial AS: sum over all mice
# Description: Swiss CD-1 female mice weighing approximately 20-24 g (JANVIER Labs) were used, housed in an individually ventilated cage system under specific pathogen-free conditions, and water and food supplied ad libitum. This study plan and the conduct of the study were subjected to review by the Scientific Park of Barcelona Ethical Review Process with the current study procedure Code CEEA (AR) 9377-P2. Mice were administered at a dose of 12 mg/Kg every 2 hours for a total of 6 administrations (total dose 72 mg/Kg), unless otherwise stated. After 20 h, animals were anesthesized with isoflurane, kidneys extracted and prepared for histopathological evaluation, and finally animales were sacrificed. Kidney lesions (tubule dilation, necrosis, tubule casts, cell vacuolization, cell desquamation, and cell swelling) were quantified by microscopical observation (see for instance, Roberts, ACS Infect. Dis., 2015, 1, 568). Each one of these parameters was scored with values from 0 to 4 for each animal, as a global result of observations in kidney. Partial scores have been added up to obtain a final score for each animal (Animal Score, AS). The mean of animal score has been obtained to define the Group Score (GS). The higher the score, the more nephrotoxic a compound is. The nephrotoxicity score has been determined as according to the following table of approximated values: […]
# K. pneumoniae MB674 = format: cell-based; conditions: for antibacterial activity (MIC): MB674; for MIC: resistance profile of strain K. pneumoniae MB674, Table 3
# Description: as §1, §2
# [1] = Escherichia coli, ATCC25922, resistance profile of strain E. coli ATCC 25922, Table 3, read-out: MIC
# [2] = Pseudomonas aeruginosa, read-out: MIC
# [3] = Pseudomonas aeruginosa, ATCC27853, read-out: MIC
# [4] = resistance profile of strain E. coli MB1410, Table 3, read-out: MIC
# [5] = resistance profile of strain E. coli ATCC 25922, Table 3
# [6] = Table 6, 12 mg/Kg every 2 hours × 6, subcutaneous, total 72 mg/Kg
# [7] = Table 6, mean of animal scores, 12 mg/Kg every 2 hours × 6, subcutaneous, total 72 mg/Kg
# [8] = Table 6, sum of mouse scores, 12 mg/Kg every 2 hours × 6, subcutaneous, total 72 mg/Kg
# [9] = Table 7, 8 mg/Kg every 2 hours × 6, total 48 mg/Kg
# [10] = Table 8, 12 mg/Kg every 2 hours × 6 sc, total 72 mg/Kg, 3 mice
compound,measurement,setting,value
"NCC[C@H](O)C(=O)N[C@@H]1C[C@H](N)[C@@H](O[C@H]2O[C@H](CN)[C@@H](O)[C@H](O)[C@H]2O)[C@H](O)[C@H]1O[C@H]1O[C@H](CO)[C@@H](O)[C@H](N)[C@H]1O [Ak, Amikacin]",MIC,E. coli ATCC 25922; [1],2 µg/mL
same,MIC,P. aeruginosa 36A; [2],2 µg/mL
same,MIC,P. aeruginosa ATCC 27853; [3],4 µg/mL
same,MIC,E. coli MB1410; [4],6 µg/mL
"CC(C)(O/N=C(\C(=O)N[C@@H]1C(=O)N2C(C(=O)[O-])=C(C[n+]3ccccc3)CS[C@H]12)c1csc(N)n1)C(=O)O [CAZ, Ceftacidime]",MIC,E. coli ATCC 25922; [5],0.25 µg/mL
same,MIC,P. aeruginosa ATCC 27853,0.5 µg/mL
"CO/N=C(\C(=O)N[C@@H]1C(=O)N2C(C(=O)O)=C(COC(C)=O)CS[C@H]12)c1csc(N)n1 [CTX, Cefotaxime]",MIC,E. coli ATCC 25922; [1],0.5 µg/mL
"O=C(O)c1cn(C2CC2)c2cc(N3CCNCC3)c(F)cc2c1=O [Cip, Ciprofloxacin]",MIC,E. coli ATCC 25922; [1],0.06 µg/mL
same,MIC,P. aeruginosa ATCC 27853; [3],0.25 µg/mL
"CCCCCCCC[C@@H](N)C(=O)N[C@H](C(=O)N[C@@H](CCN)C(=O)N[C@H]1CSSC[C@H]([C@@H](C)O)NC(=O)[C@H](CCN)NC(=O)[C@H](CCN)NC(=O)[C@H](CC(C)C)NC(=O)[C@@H](Cc2ccccc2)NC(=O)[C@H](CCN)NC1=O)[C@@H](C)O [Example 5, DAdec-Thr-Dab-cyclo(S-S)[Cys-Dab-DPhe-Leu-Dab-Dab-Ttr]] (H-[dGly(nOct)]T[Dab]C[Dab][dF]L[Dab][Dab]; linker 4-C via X1; N-terminus assumed)",antibacterial activity (MIC),E. coli ATCC 25922,1 µg/mL
same,antibacterial activity (MIC),P. aeruginosa 36A,2 µg/mL
same,antibacterial activity (MIC),P. aeruginosa ATCC 27853,2 µg/mL
same,antibacterial activity (MIC),E. coli MB1410; MB1410,1 µg/mL
same,Mice found dead,Swiss CD-1 female mice; [6],None
same,Group Score (GS),Swiss CD-1 female mice; [7],0.4
same,"Cell desquamation, Partial AS",Swiss CD-1 female mice; [8],0
same,"Cell vacuolization, Partial AS",Swiss CD-1 female mice; [8],0
same,"Cloudy swelling, Partial AS",Swiss CD-1 female mice; [8],3
same,"Tubular casts, Partial AS",Swiss CD-1 female mice; [8],0
same,"Tubular dilation, Partial AS",Swiss CD-1 female mice; [8],0
same,"Tubular necrosis, Partial AS",Swiss CD-1 female mice; [8],0
same,"Animal Score (AS), Partial AS",Swiss CD-1 female mice; [6],3
same,"AS, Partial AS",Swiss CD-1 female mice; [9],0
same,"Cell vacuolization, Partial AS",Swiss CD-1 female mice; [9],0
same,"Cloudy swelling, Partial AS",Swiss CD-1 female mice; [9],0
same,Group Score (GS),Swiss CD-1 female mice; [9],0
same,Mice found dead,Swiss CD-1 female mice; [9],None
same,"Tubular casts, Partial AS",Swiss CD-1 female mice; [9],0
same,"Tubular dilation, Partial AS",Swiss CD-1 female mice; [9],0
same,"Tubular necrosis, Partial AS",Swiss CD-1 female mice; [9],0
same,antibacterial activity (MIC),K. pneumoniae MB674,1 µg/mL
"CCCCCCCC[C@@H](N)C(=O)N[C@H](C(=O)N[C@@H](CCN)C(=O)N[C@H]1CSSC[C@H]([C@@H](C)O)NC(=O)[C@H](CCN)NC(=O)[C@H](CCN)NC(=O)[C@H](CC(C)C)NC(=O)[C@@H](CC(C)C)NC(=O)[C@H](CCN)NC1=O)[C@@H](C)O [Example 6, DAdec-Thr-Dab-cyclo(S-S)[Cys-Dab-DLeu-Leu-Dab-Dab-Ttr]] (H-[dGly(nOct)]T[Dab]C[Dab][dL]L[Dab][Dab]; linker 4-C via X1; N-terminus assumed)",antibacterial activity (MIC),E. coli ATCC 25922,2 µg/mL
same,antibacterial activity (MIC),P. aeruginosa 36A,0.5 µg/mL
same,antibacterial activity (MIC),P. aeruginosa ATCC 27853,1 µg/mL
same,antibacterial activity (MIC),E. coli MB1410; MB1410,0.5 µg/mL
same,Mice found dead,Swiss CD-1 female mice; [6],2
same,Group Score (GS),Swiss CD-1 female mice; [7],1
same,"Cell desquamation, Partial AS",Swiss CD-1 female mice; [8],0
same,"Cell vacuolization, Partial AS",Swiss CD-1 female mice; [8],0
same,"Cloudy swelling, Partial AS",Swiss CD-1 female mice; [8],5
same,"Tubular casts, Partial AS",Swiss CD-1 female mice; [8],1
same,"Tubular dilation, Partial AS",Swiss CD-1 female mice; [8],0
same,"Tubular necrosis, Partial AS",Swiss CD-1 female mice; [8],0
same,"Animal Score (AS), Partial AS",Swiss CD-1 female mice; [6],6
same,"AS, Partial AS",Swiss CD-1 female mice; [9],1
same,"Cell vacuolization, Partial AS",Swiss CD-1 female mice; [9],0
same,"Cloudy swelling, Partial AS",Swiss CD-1 female mice; [9],1
same,Group Score (GS),Swiss CD-1 female mice; [9],0.2
same,Mice found dead,Swiss CD-1 female mice; [9],None
same,"Tubular casts, Partial AS",Swiss CD-1 female mice; [9],0
same,"Tubular dilation, Partial AS",Swiss CD-1 female mice; [9],0
same,"Tubular necrosis, Partial AS",Swiss CD-1 female mice; [9],0
same,antibacterial activity (MIC),K. pneumoniae MB674,0.5 µg/mL
"CCCCCCCC(=O)N[C@@H](CCN)C(=O)N[C@H](C(=O)N[C@@H](CCN)C(=O)N[C@H]1CSSC[C@H]([C@@H](C)O)NC(=O)[C@H](CCN)NC(=O)[C@H](CCN)NC(=O)[C@H](CC(C)C)OC(=O)[C@@H](CC(C)C)NC(=O)[C@H](CCN)NC1=O)[C@@H](C)O [Example 7, Octanoyl-Dab-Thr-Dab-cyclo(S-S)[Cys-Dab-DLeu-OLe-Dab-Dab-Ttr]] (Octanoyl-[Dab]T[Dab]C[Dab][dL][Hica(2S)][Dab][Dab]; linker 4-C via X1)",antibacterial activity (MIC),E. coli ATCC 25922,8 µg/mL
same,antibacterial activity (MIC),P. aeruginosa 36A,4 µg/mL
same,antibacterial activity (MIC),P. aeruginosa ATCC 27853,2 µg/mL
same,antibacterial activity (MIC),E. coli MB1410; MB1410,4 µg/mL
same,antibacterial activity (MIC),K. pneumoniae MB674,1 µg/mL
"CO/N=C(\C(=O)N[C@@H]1C(=O)N2C(C(=O)[O-])=C(C[N+]3(C)CCCC3)CS[C@H]12)c1csc(N)n1 [FEP, Cefepime]",MIC,E. coli ATCC 25922; [1],0.06 µg/mL
same,MIC,P. aeruginosa 36A; [2],8 µg/mL
same,MIC,P. aeruginosa ATCC 27853; [3],1 µg/mL
"C[C@@H](O)[C@H]1C(=O)N2C(C(=O)O)=C(SCCN=CN)C[C@H]12 [IP, Imipenem]",MIC,"E. coli ATCC 25922; Escherichia coli, ATCC25922",0.125 µg/mL
same,MIC,P. aeruginosa ATCC 27853; [3],2 µg/mL
same,MIC,E. coli MB1410; MB1410,0.125 µg/mL
"C[C@H]1COc2c(N3CCN(C)CC3)c(F)cc3c(=O)c(C(=O)O)cn1c23 [Lev, Levofloxacin]",MIC,E. coli ATCC 25922; [1],0.094 µg/mL
same,MIC,P. aeruginosa ATCC 27853; [3],1.5 µg/mL
"C[C@@H](O)[C@H]1C(=O)N2C(C(=O)O)=C(S[C@@H]3CN[C@H](C(=O)N(C)C)C3)[C@H](C)[C@H]12 [MP, Meropenem]",MIC,"E. coli ATCC 25922; Escherichia coli, ATCC25922",0.125 µg/mL
same,MIC,P. aeruginosa ATCC 27853; [3],0.38 µg/mL
same,MIC,E. coli MB1410; [4],0.094 µg/mL
"CN(C)c1cc(NC(=O)CNC(C)(C)C)c(O)c2c1C[C@H]1C[C@H]3[C@H](N(C)C)C(O)=C(C(N)=O)C(=O)[C@@]3(O)C(O)=C1C2=O [TG, Tigecicline]",MIC,E. coli ATCC 25922; [5],0.5 µg/mL
same,MIC,P. aeruginosa 36A,12 µg/mL
same,MIC,P. aeruginosa ATCC 27853,12 µg/mL
same,MIC,K. pneumoniae MB674,0.5 µg/mL
Gentamicin [Gm],MIC,E. coli ATCC 25922; [5],0.5 µg/mL
same,MIC,P. aeruginosa ATCC 27853,1.5 µg/mL
same,MIC,K. pneumoniae MB674,2 µg/mL
Nonanoyl-Dab-Thr-Dab-cyclo(S-S)[Cys-Dab-DPhe-Leu-Dab-Dab-Cys] [compound 1],"AS, Partial AS",Swiss CD-1 female mice; [10],12
same,"Cell vacuolization, Partial AS",Swiss CD-1 female mice; [10],0
same,"Cloudy swelling, Partial AS",Swiss CD-1 female mice; [10],6
same,Group Score (GS),Swiss CD-1 female mice; [10],4
same,Mice found dead,Swiss CD-1 female mice; [10],none
same,"Tubular casts, Partial AS",Swiss CD-1 female mice; [10],0
same,"Tubular dilaion, Partial AS",Swiss CD-1 female mice; [10],6
same,"Tubular necrosis, Partial AS",Swiss CD-1 female mice; [10],0
same,"nephrotoxicity in mice, in words","Swiss CD-1 female mice; nephrotoxicity tests carried out in mice, statement of the background",showed nephrotoxicity
